Columns and labels:
[1] = Genistein particle size by laser diffraction technique (Mastersizer 2000); type: physicochemical
[2] = “swing” test (changing temperature test, 5° C./43° C.), microscopical examination; type: physicochemical; details: O/W emulsions with genistein of example 7 after dry grinding in a Jet mill only (FIG. 7), 0.3%, 0.5% and 0.1% (1.0% elsewhere in the source); ten sequences 5° C./43° C., 24 hours each
Protocol: To further illustrate the benefits obtained with nanoparticles of genistein versus conventional crystalline genistein, the cosmetic formulations described above (#3 and #4) were submitted to a very challenging stability test: The formulations were stored at a temperature varying from 5° C. to 43° C. every 24 hours during 3 weeks. […] (cycles of 24 hours at each temperature).
To force the crystallization in a disperse system, a test was used in which the temperature is changed over a self-defined timeframe and in self-defined sequences. The test is called “swing” test (changing temperature test). The purpose of this test is to dissolve small particles at the higher temperature and to force re-crystallization at lower temperature. […] The following formulations were used for the “swing” test: […]
To force this crystallization the “swing” test was used and as minimum and maximum temperatures 5° C. and 43° C. were chosen. Each temperature was held over a period of 24 hours. The duration of this test was at first set to 20 days, which means that the samples run through a cooling/heating sequence (=1 sequence) 10 times.
FIGS. 5 to 7 show the results of the “swing” test. […] The following genistein samples and concentrations were employed and the emulsions were measured immediately after preparation and after subjecting the samples to ten sequences of the “swing” test: […]

[3] = Example 1, after homogenization (42 passes) and spray-drying, re-dispersed in water
[4] = Example 1, after homogenization (42 passes, 1500 bar) with starch sodium octenyl succinate, aqueous suspension
[5] = Example 1, genistein powder before homogenization
[6] = Example 2, after homogenization (40 passes, 1500 bar) in water, no carrier
[7] = Example 2, after homogenization (42 passes) and spray-drying, re-dispersed in water
[8] = Example 2, after homogenization (42 passes), starch sodium octenyl succinate added after 40th pass
[9] = Example 2, genistein powder before homogenization
[10] = Example 3, after homogenization (40 passes, 1500 bar) in water, no carrier
[11] = Example 3, after homogenization (42 passes) and spray-drying, re-dispersed in water
[12] = Example 3, after homogenization (42 passes), starch sodium octenyl succinate added after 40th pass
[13] = Example 3, genistein powder before homogenization
[14] = Example 4, after homogenization (20 passes, 700 bar) in water, no carrier
[15] = Example 4, genistein powder before homogenization
[16] = Example 5, Table XI, headed after homogenization (42 passes) and spray-drying, maltodextrin added after 40th pass, suspension before drying
[17] = Example 5, Table XII, after homogenization (42 passes) and spray-drying, maltodextrin carrier, re-dispersed in water
[18] = Example 5, after homogenization (20 passes) as headed, text: 40 times, 1500 bar, in water, no carrier
[19] = Example 5, genistein powder before homogenization
[20] = Example 6, after homogenization (11 passages) in agitated bead mill with starch sodium octenyl succinate
[21] = Example 6, genistein powder before homogenization
[22] = Example 7, Table XIV, before milling and homogenization
[23] = Example 7, Table XV, before milling and homogenization
[24] = Example 7, after milling (Jet mill) and homogenization (12 times, 700 bar) with starch sodium octenyl succinate
[25] = Example 7, after milling, homogenization and spray drying

## O=c1c(-c2ccc(O)cc2)coc2cc(O)cc(O)c12 [Genistein, 4′,5,7-trihydroxyisoflavone]
[1]; [3]
  Average particle size D[3, 2]: 0.14 microns
  Average particle size D[4, 3]: 0.83 microns
  D (v, 0.1): 0.07 microns
  D (v, 0.5): 0.16 microns
  D (v, 0.9): 2.86 microns
[1]; [4]
  Average particle size D[3, 2]: 0.15 microns
  Average particle size D[4, 3]: 0.97 microns
  D (v, 0.1): 0.07 microns
  D (v, 0.5): 0.17 microns
  D (v, 0.9): 3.65 microns
[1]; [5]
  Average particle size D[3, 2]: 23.1 microns
  Average particle size D[4, 3]: 48.5 microns
  D (v, 0.1): 17.1 microns
  D (v, 0.5): 41.9 microns
  D (v, 0.9): 91.0 microns
[1]; [6]
  Average particle size D[3, 2]: 0.14 microns
  Average particle size D[4, 3]: 0.76 microns
  D (v, 0.1): 0.07 microns
  D (v, 0.5): 0.16 microns
  D (v, 0.9): 2.42 microns
[1]; [7]
  Average particle size D[3, 2]: 0.14 microns
  Average particle size D[4, 3]: 0.55 microns
  D (v, 0.1): 0.07 microns
  D (v, 0.5): 0.15 microns
  D (v, 0.9): 1.14 microns
[1]; [8]
  Average particle size D[3, 2]: 0.14 microns
  Average particle size D[4, 3]: 0.41 microns
  D (v, 0.1): 0.07 microns
  D (v, 0.5): 0.16 microns
  D (v, 0.9): 0.93 microns
[1]; [9]
  Average particle size D[3, 2]: 23.1 microns
  Average particle size D[4, 3]: 48.5 microns
  D (v, 0.1): 17.1 microns
  D (v, 0.5): 41.9 microns
  D (v, 0.9): 91.0 microns
[1]; [10]
  Average particle size D[3, 2]: 0.14 microns
  Average particle size D[4, 3]: 0.76 microns
  D (v, 0.1): 0.07 microns
  D (v, 0.5): 0.16 microns
  D (v, 0.9): 2.00 microns
[1]; [11]
  Average particle size D[4, 3]: 0.43 microns
  D (v, 0.1): 0.07 microns
  D (v, 0.5): 0.16 microns
  D (v, 0.9): 0.97 microns
[1]; [12]
  Average particle size D[3, 2]: 0.14 microns
  Average particle size D[4, 3]: 0.40 microns
  D (v, 0.1): 0.07 microns
  D (v, 0.5): 0.16 microns
  D (v, 0.9): 0.91 microns
[1]; [13]
  Average particle size D[3, 2]: 23.1 microns
  Average particle size D[4, 3]: 48.5 microns
  D (v, 0.1): 17.1 microns
  D (v, 0.5): 41.9 microns
  D (v, 0.9): 91.0 microns
[1]; [14]
  Average particle size D[3, 2]: 0.13 microns
  Average particle size D[4, 3]: 0.83 microns
  D (v, 0.1): 0.07 microns
  D (v, 0.5): 0.15 microns
  D (v, 0.9): 2.62 microns
[1]; [15]
  Average particle size D[3, 2]: 23.1 microns
  Average particle size D[4, 3]: 48.5 microns
  D (v, 0.1): 17.1 microns
  D (v, 0.5): 41.9 microns
  D (v, 0.9): 91.0 microns
[1]; [16]
  Average particle size D[3, 2]: 0.14 microns
  Average particle size D[4, 3]: 0.41 microns
  D (v, 0.1): 0.07 microns
  D (v, 0.5): 0.16 microns
  D (v, 0.9): 0.93 microns
[1]; [17]
  Average particle size D[3, 2]: 0.13 microns
  Average particle size D[4, 3]: 0.41 microns
  D (v, 0.1): 0.07 microns
  D (v, 0.5): 0.15 microns
  D (v, 0.9): 0.93 microns
[1]; [18]
  Average particle size D[2, 3]: 0.14 microns
  Average particle size D[4, 3]: 0.42 microns
  D (v, 0.1): 0.07 microns
  D (v, 0.5): 0.16 microns
  D (v, 0.9): 0.92 microns
[1]; [19]
  Average particle size D[2, 3]: 23.1 microns
  Average particle size D[4, 3]: 48.5 microns
  D (v, 0.1): 17.8 microns
  D (v, 0.5): 41.4 microns
  D (v, 0.9): 90.2 microns
[1]; [20]
  Average particle size D[4, 3]: 0.23 microns
  D (v, 0.1): 0.07 microns
  D (v, 0.5): 0.16 microns
  D (v, 0.9): 0.45 microns
[1]; [21]
  Average particle size D[4, 3]: 48.5 microns
  D (v, 0.1): 17.8 microns
  D (v, 0.5): 41.4 microns
  D (v, 0.9): 90.2 microns
[1]; [22]
  Average particle size D[4, 3]: 48.5 microns
  D (v, 0.1): 17.8 microns
  D (v, 0.5): 41.4 microns
  D (v, 0.9): 90.2 microns
[1]; [23]
  Average particle size D[4, 3]: 48.5 microns
  D (v, 0.1): 17.8 microns
  D (v, 0.5): 41.4 microns
  D (v, 0.9): 90.2 microns
[1]; [24]
  Average particle size D[4, 3]: 0.53 microns
  D (v, 0.1): 0.07 microns
  D (v, 0.5): 0.18 microns
  D (v, 0.9): 1.38 microns
[1]; [25]
  Average particle size D[4, 3]: 0.65 microns
  D (v, 0.1): 0.08 microns
  D (v, 0.5): 0.19 microns
  D (v, 0.9): 1.84 microns
[1]; after homogenization (42 passes) and spray-drying, re-dispersed in water
  Average particle size D[2, 3]: 0.14 microns
[2]
  Change of particle size during the “swing” test: significantly changed

Reference: patent US8685456B2, “Topical compositions comprising nanoparticles of an isoflavone” (DSM IP Assets B.V., priority 2005, dated 2014)
